Literature values, collected in patent US20260248729A1, “NOVEL ORAL DOSAGE FORM” (Neon Healthcare Ltd, priority 2022, published 2026).

[1] = administered orally in the form of phenelzine sulfate

- Time to peak plasma concentration [1]: 43 min
- half-life [1]: 11.6 h
- major metabolites phenylacetic acid and parahydroxyphenylacetic acid recovered, of the excreted dose of phenelzine in the urine (over the course of 96 hours after single doses): about 73%
SMILES: NNCCc1ccccc1 [Phenelzine, 2-phenylethylhydrazine]
